US5861404A, “2,9-disubstituted purin-6-ones” (Bayer Aktiengesellschaft, priority 1995, dated 1999)

Experiments:
Type in all cases: biochemical
cGMP-stimulatable PDE II = assay: Inhibition of the phosphodiesterases in vitro: PDE II; details: PDE II from porcine or bovine myocardium; 3H-cAMP substrate 10^-6 mol/l with 10^-6 mol/l cGMP; pH 7.5, 30 minutes
Procedure: (§1) The cGMP-stimulatable PDE II, the cGMP-inhibitable PDE III and the cAMP-specific PDE IV were isolated from either porcine or bovine myocardium. The Ca-calmodulin-stimulatable PDE I was isolated from the porcine aorta or porcine brain. The cGMP-specific PDE V was obtained from the porcine small intestine, porcine aorta and/or human blood platelets. Purification was carried out by anion exchange chromatography over MonoQ Phaacia essentially by the method of M. Hoey and Miles D. Houslay, Biochemical Pharmacology, Vol. 40, 193-202 (1990).
(§2) The enzyme activity is determined in a test batch of 100 μl in 20 mM Tris/HCl buffer of pH 7.5 which comprises 5 mM MgCl2, 0.1 mg/ml of bovine serum albumin and either 800 Bq of ^3 HcAMP or ^3 HcGMP. The final concentration of the corresponding nucleotides is 10^-6 mol/l. The reaction is started by addition of the enzyme and the amount of enzyme is chosen such that about 50% of the substrate is reacted during the incubation time of 30 minutes. To test the cGMP-stimulatable PDE II, ^3 HcAMP is used as the substrate and 10^-6 mol/l of non-labelled cGMP is added to the batch. To test the Ca-calmodulin-dependent PDE I, 1 μM CaCl2 and 0.1 μM calmodulin are also added to the reaction batch. The reaction is stopped by addition of 100 μl of acetonitrile which comprises 1 mnM cAMP and 1 mM AMP. 100 μl of the reaction batch are separated on the HPLC column and the cleavage products are determined quantitatively "online" with a flow-through scintillation counter. The substance concentration at which the rate of reaction is reduced by 50% is measured.

cGMP-specific PDE V = assay: Inhibition of the phosphodiesterases in vitro: PDE V; details: PDE V from porcine small intestine, porcine aorta and/or human blood platelets; nucleotide 10^-6 mol/l; pH 7.5, 30 minutes
Procedure: as §1, §2

[1] = tested on: Ca-calmodulin-stimulatable PDE I; assay: Inhibition of the phosphodiesterases in vitro: PDE I; details: PDE I from porcine aorta or porcine brain; nucleotide 10^-6 mol/l; 1 μM CaCl2, 0.1 μM calmodulin; pH 7.5, 30 minutes
Procedure: as §1, §2

Row | Structure (SMILES) | IC50 (cGMP-stimulatable PDE II) | IC50 (cGMP-specific PDE V) | IC50 [1]
1 | CCCCCCC(C(C)O)n1cnc2c(=O)[nH]c(-c3ccc(Cl)cc3)nc21 (centres unmarked) [Example 5] | 3000 nM | 50000 nM | 10000 nM
2 | CC(O)C(CCCc1ccccc1)n1cnc2c(=O)[nH]c(C3CCCCC3)nc21 (centres unmarked) [Example 8, 9-(2-hydroxy-6phenyl-3-hexyl)-2-cyclohexyl-purin-6one] | 2000 nM | – | 40000 nM
3 | CC(CCCc1ccccc1)n1cnc2c(=O)[nH]c(C3CC3)nc21 (centres unmarked) [Example 14] | 600 nM | 300 nM | 4000 nM
4 | CC(CCCc1ccccc1)n1cnc2c(=O)[nH]c(-c3ccc(-c4ccccc4)cc3)nc21 (centres unmarked) [Example 20] | 400 nM | 1000 nM | 1000 nM
5 | CC(CCCc1ccccc1)n1cnc2c(=O)[nH]c(-c3ccc4c(c3)OCO4)nc21 (centres unmarked) [Example 25] | 100 nM | 10000 nM | 3000 nM
